In brackets after ≈: the same amount, converted by molar mass. Like-named read-outs stand apart in the source and are kept apart here.
System: E. coli ATCC 11229
Test: Minimal inhibitory concentration (MIC), broth microdilution
Type: cell-based
Conditions: Escherichia coli
Method: It was cultivated in tryptic soy broth (TSB) (BD, Sparks, NV, USA) at 37 °C and subcultured three times before being used for antimicrobial activity assays.
MICs for Escherichia coli ATCC 11229 were determined using a broth microdilution protocol. Briefly, twofold dilutions of peptide solutions ([…]) were made in Mueller Hinton Broth (MHB) (Oxoid, Basingstoke, UK) in 96-well polypropylene clear round bottom microplates (Corning Inc., Corning, NY, USA). Bacteria were cultured for 18 h and then diluted in MHB broth and inoculated in the microplates so that the final inoculum in the wells was 5 × 10^5 CFU/mL. The final volumes in the wells were 200 μL. Plates were then incubated for 16 h at 37 °C. […] Chloramphenicol (Sigma-Aldrich, St. Louis, MI, USA) was used as a positive control to ensure the validity of the tests. […] MBCs were defined as the lowest peptide concentrations that inhibited 99.9% or more of bacterial growth based on the initial 5 × 10^5 CFU/mL inocula in the wells [66]. Three independent repetitions were completed, and two technical replicates were done for each independent repetition.
The impact of different salts on the antimicrobial activity of SJGAP and analogs thereof was tested by determining the effect on their MIC and MBC values. The same procedure as described above was used, but different concentrations of salts were added to the MHB medium in the microplates. To test the impact of monovalent cations, NaCl (Fisher Scientific, Fair Lawn, NJ, USA) and KCl (EMD, Gibbstown, NJ, USA) were tested at final concentrations of 50, 150, and 300 mM in the wells.
The stability of the peptides at elevated temperatures was also tested. Mixtures of the peptides solubilized in MHB medium were heated to 100 °C for 15 min in a water bath. After cooling in an ice water bath, the solutions were loaded into the microplates and inoculated with the tested bacteria to conduct the MIC and MBC assays. For all tested conditions, three independent repetitions and two technical replicates for each of these repetitions were completed.

O=C(N[C@H](CO)[C@H](O)c1ccc([N+](=O)[O-])cc1)C(Cl)Cl [Chloramphenicol]
MIC (ATCC11229, 16 h, MHB + 1 mM CaCl2, 16 h, 37 °C, 5 × 10^5 CFU/mL, three independent repetitions, n.a. = no activity, read-out: MIC): 8 µg/mL
MIC (ATCC11229, MHB + 1 mM MgCl2, n.a. = no activity, read-out: MIC): 8 µg/mL
MIC (ATCC11229, MHB + 5 mM CaCl2, n.a. = no activity, read-out: MIC): 8 µg/mL
MIC (ATCC11229, MHB + 5 mM MgCl2, n.a. = no activity, read-out: MIC): 8 µg/mL
MIC (ATCC11229, MHB + 10 mM CaCl2, n.a. = no activity, read-out: MIC): 8 µg/mL
MIC (ATCC11229, MHB + 10 mM MgCl2, n.a. = no activity, read-out: MIC): 8 µg/mL
MIC (ATCC11229, MHB + 50 mM KCl, n.a. = no activity, * very weak bacterial growth detected, read-out: MIC): 8 µg/mL
MIC (ATCC11229, MHB + 50 mM NaCl, n.a. = no activity, * very weak bacterial growth detected, read-out: MIC): 8 µg/mL
MIC (ATCC11229, MHB + 150 mM KCl, n.a. = no activity, * very weak bacterial growth detected, read-out: MIC): 4 µg/mL
MIC (ATCC11229, MHB + 150 mM NaCl, n.a. = no activity, * very weak bacterial growth detected, read-out: MIC): 4 µg/mL
MIC (ATCC11229, MHB + 300 mM KCl, n.a. = no activity, read-out: MIC): 2 µg/mL
MIC (ATCC11229, MHB + 300 mM NaCl, n.a. = no activity, read-out: MIC): 4 µg/mL
MIC (ATCC11229, […], peptide in MHB heated 100 °C, 15 min in water bath, cooled, then assayed, n.a. = no activity, read-out: MIC after heating treatment): 8 µg/mL (≈ 24.8 µM)
MIC (ATCC11229, pH 5, MHB adjusted to pH 5 with 50 mM citrate buffer, * very weak bacterial growth detected, read-out: MIC): 0.5 µg/mL (≈ 1.55 µM)
MIC (ATCC11229, pH 6, MHB adjusted to pH 6 with 50 mM citrate buffer, * very weak bacterial growth detected, read-out: MIC): 2 µg/mL (≈ 6.19 µM)
MIC (ATCC11229, pH 7, MHB adjusted to pH 7 with 50 mM phosphate buffer, n.a. = no activity, read-out: MIC): 4 µg/mL (≈ 12.4 µM)
MIC (ATCC11229, pH 8, MHB adjusted to pH 8 with 50 mM phosphate buffer, n.a. = no activity, read-out: MIC): 4 µg/mL (≈ 12.4 µM)
MIC (ATCC11229, unmodified MHB (Ctrl −), n.a. = no activity, read-out: MIC): 8 µg/mL (≈ 24.8 µM)
